Experimental data as given in ChEMBL document CHEMBL4819100, “Antibacterial and synergistic activity of 6β-hydroxy-3-oxolup-20(29)-en-28-oic acid (6β-hydroxy betunolic acid) isolated from Schumacheria castaneifolia vahl” (2021).
Converted amounts (≈) assume the structure as drawn.

Columns and labels:
Format in all cases: functional
Staphylococcus aureus [1] = assay: Antibacterial activity against methicillin-resistant Staphylococcus aureus 59 assessed as fractional inhibitory concentration index incubated for 24 hrs in presence of oxacillin by CLSI based serial dilution method
Staphylococcus aureus [2] = assay: Antibacterial activity against methicillin-resistant Staphylococcus aureus 124 assessed as reduction in bacterial growth incubated for 24 hrs by CLSI based serial dilution method
Enterococcus faecalis = assay: Antibacterial activity against Enterococcus faecalis ATCC 29212 assessed as reduction in bacterial growth incubated for 24 hrs by CLSI based serial dilution method
Escherichia coli [3] = assay: Antibacterial activity against Escherichia coli ATCC 25922 assessed as reduction in bacterial growth incubated for 24 hrs by CLSI based serial dilution method
Staphylococcus aureus [4] = assay: Antibacterial activity against methicillin-resistant Staphylococcus aureus 114 assessed as reduction in bacterial growth incubated for 24 hrs by CLSI based serial dilution method
Staphylococcus aureus [5] = assay: Antibacterial activity against Staphylococcus aureus assessed as reduction in bacterial growth incubated for 24 hrs in presence of oxacillin by CLSI based serial dilution method
Acinetobacter [6] = assay: Antibacterial activity against Acinetobacter sp. 126 assessed as reduction in bacterial growth incubated for 24 hrs by CLSI based serial dilution method
Staphylococcus aureus [7] = assay: Antibacterial activity against methicillin-resistant Staphylococcus aureus 59 assessed as fractional inhibitory concentration incubated for 24 hrs in presence of oxacillin by CLSI based serial dilution method
Staphylococcus aureus [8] = assay: Antibacterial activity against methicillin-resistant Staphylococcus aureus 58 assessed as fractional inhibitory concentration index incubated for 24 hrs in presence of oxacillin by CLSI based serial dilution method
Staphylococcus aureus [9] = assay: Antibacterial activity against methicillin-resistant Staphylococcus aureus 58 assessed as reduction in bacterial growth incubated for 24 hrs by CLSI based serial dilution method
Staphylococcus aureus [10] = assay: Antibacterial activity against methicillin-resistant Staphylococcus aureus 59 assessed as reduction in bacterial growth incubated for 24 hrs by CLSI based serial dilution method
Staphylococcus aureus [11] = assay: Antibacterial activity against methicillin-resistant Staphylococcus aureus 114 assessed as reduction in bacterial growth incubated for 24 hrs in presence of oxacillin by CLSI based serial dilution method
Staphylococcus aureus [12] = assay: Antibacterial activity against methicillin-resistant Staphylococcus aureus 114 assessed as fractional inhibitory concentration index incubated for 24 hrs in presence of oxacillin by CLSI based serial dilution method
Pseudomonas aeruginosa = assay: Antibacterial activity against Pseudomonas aeruginosa ATCC 27853 assessed as reduction in bacterial growth incubated for 24 hrs by CLSI based serial dilution method
Staphylococcus aureus [13] = assay: Antibacterial activity against methicillin-resistant Staphylococcus aureus 58 assessed as reduction in bacterial growth incubated for 24 hrs in presence of oxacillin by CLSI based serial dilution method
Staphylococcus aureus [14] = assay: Antibacterial activity against Staphylococcus aureus ATCC 29213 assessed as reduction in bacterial growth incubated for 24 hrs by CLSI based serial dilution method
Klebsiella pneumoniae [15] = assay: Antibacterial activity against Klebsiella pneumoniae ATCC BAA-1706 assessed as reduction in bacterial growth incubated for 24 hrs by CLSI based serial dilution method
Staphylococcus aureus [16] = assay: Antibacterial activity against Staphylococcus aureus assessed as fractional inhibitory concentration index incubated for 24 hrs in presence of oxacillin by CLSI based serial dilution method
Acinetobacter [17] = assay: Antibacterial activity against Acinetobacter sp. 103 assessed as reduction in bacterial growth incubated for 24 hrs by CLSI based serial dilution method
Acinetobacter [18] = assay: Antibacterial activity against Acinetobacter sp. 122 assessed as reduction in bacterial growth incubated for 24 hrs by CLSI based serial dilution method
Staphylococcus aureus [19] = assay: Antibacterial activity against Staphylococcus aureus assessed as fractional inhibitory concentration incubated for 24 hrs in presence of oxacillin by CLSI based serial dilution method
Staphylococcus aureus [20] = assay: Antibacterial activity against Staphylococcus aureus ATCC 25923 assessed as reduction in bacterial growth incubated for 24 hrs by CLSI based serial dilution method
Staphylococcus aureus [21] = assay: Antibacterial activity against methicillin-resistant Staphylococcus aureus 114 assessed as fractional inhibitory concentration incubated for 24 hrs in presence of oxacillin by CLSI based serial dilution method
Staphylococcus aureus [22] = assay: Antibacterial activity against methicillin-resistant Staphylococcus aureus 59 assessed as reduction in bacterial growth incubated for 24 hrs in presence of oxacillin by CLSI based serial dilution method
Staphylococcus aureus [23] = assay: Antibacterial activity against methicillin-resistant Staphylococcus aureus 124 assessed as fractional inhibitory concentration incubated for 24 hrs in presence of oxacillin by CLSI based serial dilution method
Staphylococcus aureus [24] = assay: Antibacterial activity against methicillin-resistant Staphylococcus aureus 58 assessed as fractional inhibitory concentration incubated for 24 hrs in presence of oxacillin by CLSI based serial dilution method
Klebsiella pneumoniae [25] = assay: Antibacterial activity against Klebsiella pneumoniae ATCC BAA-1705 assessed as reduction in bacterial growth incubated for 24 hrs by CLSI based serial dilution method
Escherichia coli [26] = assay: Antibacterial activity against Escherichia coli ATCC 35218 assessed as reduction in bacterial growth incubated for 24 hrs by CLSI based serial dilution method
Acinetobacter [27] = assay: Antibacterial activity against Acinetobacter sp. 121 assessed as reduction in bacterial growth incubated for 24 hrs by CLSI based serial dilution method
Staphylococcus aureus [28] = assay: Antibacterial activity against methicillin-resistant Staphylococcus aureus 124 assessed as fractional inhibitory concentration index incubated for 24 hrs in presence of oxacillin by CLSI based serial dilution method
Staphylococcus aureus [29] = assay: Antibacterial activity against methicillin-resistant Staphylococcus aureus 124 assessed as reduction in bacterial growth incubated for 24 hrs in presence of oxacillin by CLSI based serial dilution method

Structure (SMILES) | MIC (Staphylococcus aureus [2]) [µg/mL] | MIC (Enterococcus faecalis) [µg/mL] | MIC (Escherichia coli [3]) [µg/mL] | MIC (Staphylococcus aureus [4]) [µg/mL] | MIC (Acinetobacter [6]) [µg/mL] | MIC (Staphylococcus aureus [9]) [µg/mL] | MIC (Staphylococcus aureus [10]) [µg/mL] | MIC (Pseudomonas aeruginosa) [µg/mL] | MIC (Staphylococcus aureus [14]) [µg/mL] | MIC (Acinetobacter [17]) [µg/mL] | MIC (Acinetobacter [18]) [µg/mL] | MIC (Klebsiella pneumoniae [25]) [µg/mL] | MIC (Escherichia coli [26]) [µg/mL] | MIC (Acinetobacter [27]) [µg/mL] | further results
C=C(C)[C@@H]1CC[C@]2(C(=O)O)CC[C@]3(C)[C@H](CC[C@@H]4[C@@]5(C)CCC(=O)C(C)(C)[C@@H]5[C@H](O)C[C@]43C)[C@@H]12 | 32 (≈ 68 µM) | 32 (≈ 68 µM) | > 1020 | 32 (≈ 68 µM) | > 1020 | 32 (≈ 68 µM) | 16 (≈ 34 µM) | > 1020 | 32 (≈ 68 µM) | > 1020 | > 1020 | > 1020 | > 1020 | > 1020 | fractional inhibitory concentration index (FICI) (Staphylococcus aureus [1]): 0.75; MIC (Staphylococcus aureus [5]): 8 µg/mL; FIC (Staphylococcus aureus [7]): 0.5; fractional inhibitory concentration index (FICI) (Staphylococcus aureus [8]): 1; MIC (Staphylococcus aureus [11]): 16 µg/mL; fractional inhibitory concentration index (FICI) (Staphylococcus aureus [12]): 0.53; MIC (Staphylococcus aureus [13]): 16 µg/mL; MIC (Klebsiella pneumoniae [15]): > 1020 µg/mL; fractional inhibitory concentration index (FICI) (Staphylococcus aureus [16]): 0.49; FIC (Staphylococcus aureus [19]): 0.25; MIC (Staphylococcus aureus [20]): 16 µg/mL (≈ 34 µM); FIC (Staphylococcus aureus [21]): 0.5; MIC (Staphylococcus aureus [22]): 8 µg/mL; FIC (Staphylococcus aureus [23]): 1; FIC (Staphylococcus aureus [24]): 0.5; fractional inhibitory concentration index (FICI) (Staphylococcus aureus [28]): 2; MIC (Staphylococcus aureus [29]): 32 µg/mL
C[C@@H](O)[C@H]1C(=O)N2C(C(=O)O)=C(S[C@@H]3CN[C@H](C(=O)N(C)C)C3)[C@H](C)[C@H]12 [MEROPENEM] |  |  | 0.008 (≈ 0.0209 µM) |  | 128 (≈ 334 µM) |  |  | 0.12 (≈ 0.313 µM) |  | 64 (≈ 167 µM) | 128 (≈ 334 µM) | 8 (≈ 20.9 µM) | 0.008 (≈ 0.0209 µM) | 64 (≈ 167 µM) | 
Cc1onc(-c2ccccc2)c1C(=O)N[C@@H]1C(=O)N2[C@@H]1SC(C)(C)[C@@H]2C(=O)O [OXACILLIN] | 16 (≈ 39.9 µM) | 8 (≈ 19.9 µM) |  | 16 (≈ 39.9 µM) |  | 16 (≈ 39.9 µM) | 16 (≈ 39.9 µM) |  | 0.12 (≈ 0.299 µM) |  |  |  |  |  | 
